According to patent US8598179B2, “Pyrazole-carboxamide derivatives as P2Y12 antagonists” (Sanofi, priority 2007, dated 2013):
pIC50: −log10 of the molar value.

System: human platelet rich plasma (ADP-induced platelet aggregation)
Test: Inhibition of human platelet aggregation, "Born"-method (single cuvettes)
Type: cell-based
Conditions: 0.1 h, aggregation induced by ADP, single use cuvettes, platelet aggregation profiler, 6 minutes at 37° C.
Method: Inhibition of Human Platelet Aggregation
Alternatively to a binding assay which measures a compound's ability to bind to the P2Y12 receptor, the effect on cellular function was also determined. This ability of the compound was evaluated in two platelet aggregation assays: in 96-well plates and with the “Born”-method using single cuvettes.
Whole blood was collected from healthy volunteers using 20 ml syringes containing 2 ml of buffered Citrate. The anticoagulated whole blood was transferred into 15 ml polypropylene conical tubes (10 ml per tube). The tubes were centrifuged for 15 minutes at 340×g at RT without using the centrifuge brake. This procedure leads to a pellet of cellular components and a supernatant of platelet rich plasma (PRP). The PRP layer was collected from each tube and pooled for each donor. To avoid carry over of cellular components following centrifugation, approximately 5 ml of PRP was left in the tube. The platelet concentration was determined using a Coulter Counter.
The 15 ml tubes containing the pellet of cellular components were centrifuged again for 10 minutes at 1940×g. This pelleted out most particulate blood constituents remaining, leaving a layer of Platelet Poor Plasma (PPP). The PPP was collected for each donor. The PRP layer, previously set aside, was diluted with PPP to a final concentration of approximately 3×E8 platelets/ml with the PPP.
The human platelet aggregation assay is performed in single use cuvettes using the platelet aggregation profiler (PAP-4 or -8, Bio/Data corporation).
In the assay cuvette 4 μl of test compound at 100× final concentration in DMSO is mixed with 392 μl fresh PRP and incubated for 2 minutes at 37° C. with 1.200 rpm stirring. Following that incubation period, 4 μl of 250 μM ADP is added to the reaction mix. […] After that aggregation is measured over 6 minutes at 37° C. with 1.200 rpm stirring. Results of the assay are expressed as % inhibition, and are calculated using maximum aggregation (Tmax) or area under curve (AUC) of the absorbance over 6 minutes. […]

Compound | pIC50
CCOC(=O)N1CCN(C(=O)[C@H](CCC(=O)O)NC(=O)c2cc(OC3(C(=O)OCC)CCC3)n(-c3ccccc3)n2)CC1 [Example 1, 4-((S)-4-Carboxy-2-{[5-(1-ethoxycarbonyl-cyclobutoxy)-1-phenyl-1H-pyrazole-3-carbonyl]-amino}-butyryl)-piperazine-1-carboxylic acid ethyl ester] | 5.53
CCOC(=O)COc1cc(C(=O)N[C@@H](CCC(=O)O)C(=O)N2CCN(C(=O)OCC)CC2)nn1-c1ccccc1 [Example 5, 4-{(S)-4-Carboxy-2-[(5-ethoxycarbonylmethoxy-1-phenyl-1H-pyrazole-3-carbonyl)-amino]-butyryl}-piperazine-1-carboxylic acid ethyl ester] | 5.61
CCOC(=O)N1CCN(C(=O)[C@H](CCC(=O)O)NC(=O)c2cc(OCC(=O)C(C)(C)C)n(-c3ccccc3)n2)CC1 [Example 80, 4-((S)-4-Carboxy-2-{[5-(3,3-dimethyl-2-oxo-butoxy)-1-phenyl-1H-pyrazole-3-carbonyl]-amino}-butyryl)-piperazine-1-carboxylic acid ethyl ester] | 5.61
